Measured values from patent US20240166609A1, “ANTIBACTERIAL COMPOUNDS” (BLACKSMITH MEDICINES, INC., priority 2021, published 2024).
pIC50: −log10 of the molar value. Values after ≈ are worked out from the molar mass of the structure shown.

What was measured:
E. coli ATCC25922 = assay: Bacterial susceptibility testing, MIC by broth microdilution (CLSI); format: cell-based; settings: Escherichia coli, 35° C., 18-24 h, read-out: MIC (μg/mL) E. coli ATCC25922
Method: (§1) Minimal inhibitory concentrations (MIC) were determined by the broth microdilution method in accordance with the Clinical and Laboratory Standards Institute (CLSI) guidelines. In brief, organism suspensions were adjusted to a final inoculum between 3×10^5 and 7×10^5 colony-forming units (CFU)/mL. Drug dilutions and inocula were made in sterile, cation adjusted Mueller-Hinton Broth (Beckton Dickinson). In wells, an inoculum volume of 100 μL was mixed to 2 μL of DMSO with 2-fold serial dilutions of drug. All inoculated microdilution trays were incubated in ambient air at 35° C. for 18-24 h. Following incubation, the lowest concentration of the drug that prevented visible growth (OD600 nm<0.05) was recorded as the MIC. Performance of the assay was monitored by the use of laboratory quality-control strains and compounds with defined MIC spectrum, in accordance with CLSI guidelines

P. aeruginosa ATCC27835 = assay: as above; format: cell-based; settings: Pseudomonas aeruginosa, 35° C., 18-24 h, read-out: MIC (μg/mL) P. aeruginosa ATCC27835
Method: as §1

K. pneumoniae ATCC13883 = assay: as above; format: cell-based; settings: Klebsiella pneumoniae, 35° C., 18-24 h, read-out: MIC (μg/mL) K. pneumoniae ATCC13883
Method: as §1

P. aeruginosa 209 PAO1 = assay: as above; format: cell-based; settings: Pseudomonas aeruginosa, 35° C., 18-24 h, read-out: MIC (μg/mL) P. aeruginosa 209 PAO1
Method: as §1

E. coli LpxC = biological target: T1, E. coli LpxC (Escherichia coli, UniProt P0A725); assay: LpxC Binding Assay (Rapid Fire MS assay); format: biochemical
T1 sequence (P0A725 1-305): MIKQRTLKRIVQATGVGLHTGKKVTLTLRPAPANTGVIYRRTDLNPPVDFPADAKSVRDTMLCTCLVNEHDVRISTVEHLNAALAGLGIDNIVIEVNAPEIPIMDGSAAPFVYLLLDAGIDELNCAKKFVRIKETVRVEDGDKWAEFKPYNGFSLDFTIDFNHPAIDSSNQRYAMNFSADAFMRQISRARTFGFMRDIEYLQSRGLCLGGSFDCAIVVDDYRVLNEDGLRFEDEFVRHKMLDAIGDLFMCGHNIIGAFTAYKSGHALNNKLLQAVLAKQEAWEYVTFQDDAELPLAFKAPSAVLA
Method: (§2) IC50 values against E. coli and P. aeruginosa LpxC are determined using a Rapid Fire MS assay as previously described J. Med. Chem. 2012, 55, 1662-1670.

P. aeruginosa LpxC = biological target: T2, P. aeruginosa LpxC (Pseudomonas aeruginosa, UniProt P47205); assay: LpxC Binding Assay (Rapid Fire MS assay); format: biochemical
T2 sequence (P47205 1-303): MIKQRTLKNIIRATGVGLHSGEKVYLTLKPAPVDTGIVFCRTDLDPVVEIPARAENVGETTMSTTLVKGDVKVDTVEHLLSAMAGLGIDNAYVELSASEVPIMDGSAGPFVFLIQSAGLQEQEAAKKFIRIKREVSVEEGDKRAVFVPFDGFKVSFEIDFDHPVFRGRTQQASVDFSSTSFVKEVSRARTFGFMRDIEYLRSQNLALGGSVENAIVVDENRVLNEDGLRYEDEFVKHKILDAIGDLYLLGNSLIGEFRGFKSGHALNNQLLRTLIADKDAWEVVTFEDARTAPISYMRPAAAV
Method: as §2

K. pneumoniae LpxC = K. pneumoniae LpxC (Klebsiella pneumoniae subsp. pneumoniae, UniProt A6T4N9); assay: LpxC Binding Assay (Rapid Fire MS assay); format: biochemical
Chain of K. pneumoniae LpxC (A6T4N9 whole entry): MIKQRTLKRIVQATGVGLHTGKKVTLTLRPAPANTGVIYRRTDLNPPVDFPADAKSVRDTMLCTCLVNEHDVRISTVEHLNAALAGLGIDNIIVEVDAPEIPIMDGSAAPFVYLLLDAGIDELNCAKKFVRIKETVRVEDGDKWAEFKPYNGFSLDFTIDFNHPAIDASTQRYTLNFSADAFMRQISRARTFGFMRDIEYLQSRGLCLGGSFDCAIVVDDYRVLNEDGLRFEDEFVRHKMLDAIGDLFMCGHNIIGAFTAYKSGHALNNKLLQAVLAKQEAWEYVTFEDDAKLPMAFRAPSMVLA

Structure (SMILES) | MIC (E. coli ATCC25922) | MIC (P. aeruginosa ATCC27835) | MIC (K. pneumoniae ATCC13883) | MIC (P. aeruginosa 209 PAO1) | pIC50 (E. coli LpxC) | pIC50 (P. aeruginosa LpxC) | pIC50 (K. pneumoniae LpxC)
C[C@H](O)c1nccn1CC#Cc1ccc(-c2ccc(OCC(N)CO)cc2)cc1 (mixture of isomers) [Compound 7, 2-amino-3-((4′-(3-(2-((S)-1-hydroxyethyl)-1H-imidazol-1-yl)prop-1-yn-1-yl)-[1,1′-biphenyl]-4-yl)oxy)propan-1-ol] | 2 µg/mL (≈ 5.11 µM) | 2 µg/mL (≈ 5.11 µM) | 4 µg/mL (≈ 10.2 µM) | 2 µg/mL (≈ 5.11 µM) | 7.87 | 7.59 | –
C[C@H](O)c1nccn1[C@@H](C#Cc1ccc(-c2ccc(CO[C@@H]3C[C@H]3N)cc2)cc1)CO (racemic) [Compound 9, (S)-4-(4′-(((trans)-2-aminocyclopropoxy)methyl)-[1,1′-biphenyl]-4-yl)-2-(2-((S)-1-hydroxyethyl)-1H-imidazol-1-yl)but-3-yn-1-ol] | – | 4 µg/mL (≈ 9.58 µM) | 4 µg/mL (≈ 9.58 µM) | 2 µg/mL (≈ 4.79 µM) | 8.74 | 7.32 | 8.41
C[C@H](O)c1nccn1[C@@H](C#Cc1ccc(-c2ccc(O[C@@H]3C[C@H]3NCCF)cc2)cc1)CO (racemic) [Compound 12, (S)-4-(4′-((trans)-2-((2-fluoroethyl)amino)cyclopropoxy)-[1,1′-biphenyl]-4-yl)-2-(2-((S)-1-hydroxyethyl)-1H-imidazol-1-yl)but-3-yn-1-ol] | – | 4 µg/mL (≈ 8.9 µM) | 2 µg/mL (≈ 4.45 µM) | 2 µg/mL (≈ 4.45 µM) | > 9.30 | 8.22 | 8.96
C[C@H](O)c1nccn1[C@@H](C#Cc1ccc(-c2ccc(OCC3COCCO3)cc2)cc1)CO (mixture of isomers) [Compound 13, (2S)-4-(4′-((1,4-dioxan-2-yl)methoxy)-[1,1′-biphenyl]-4-yl)-2-(2-((S)-1-hydroxyethyl)-1H-imidazol-1-yl)but-3-yn-1-ol] | – | 4 µg/mL (≈ 8.92 µM) | 1 µg/mL (≈ 2.23 µM) | 2 µg/mL (≈ 4.46 µM) | > 9.30 | 8.26 | 9.05
C[C@H](O)c1nccn1[C@@H](C#Cc1ccc(-c2ccc(OCC(C)(O)CO)cc2)cc1)CO (mixture of isomers) [Compound 16, 3-((4′-((S)-4-hydroxy-3-(2-((S)-1-hydroxyethyl)-1H-imidazol-1-yl)but-1-yn-1-yl)-[1,1′-biphenyl]-4-yl)oxy)-2-methylpropane-1,2-diol] | – | 4 µg/mL (≈ 9.16 µM) | 4 µg/mL (≈ 9.16 µM) | 2 µg/mL (≈ 4.58 µM) | 8.89 | 8.08 | 8.66
C[C@H](O)c1nccn1[C@@H](C#Cc1ccc(-c2ccc(OCCC(O)CO)cc2)cc1)CO (mixture of isomers) [Compound 17, 4-((4′-((S)-4-hydroxy-3-(2-((S)-1-hydroxyethyl)-1H-imidazol-1-yl)but-1-yn-1-yl)-[1,1′-biphenyl]-4-yl)oxy)butane-1,2-diol] | – | 2 µg/mL (≈ 4.58 µM) | 2 µg/mL (≈ 4.58 µM) | 1 µg/mL (≈ 2.29 µM) | 9.30 | 8.18 | 9.00
C[C@H](O)c1nccn1[C@@H](C#Cc1ccc(-c2ccc(OC(CO)CCO)cc2)cc1)CO (mixture of isomers) [Compound 22, 2-((4′-((S)-4-hydroxy-3-(2-((S)-1-hydroxyethyl)-1H-imidazol-1-yl)but-1-yn-1-yl)-[1,1′-biphenyl]-4-yl)oxy)butane-1,4-diol] | – | 4 µg/mL (≈ 9.16 µM) | 4 µg/mL (≈ 9.16 µM) | 1 µg/mL (≈ 2.29 µM) | 9.10 | 8.10 | 8.82
C[C@H](O)c1nccn1[C@@H](C#Cc1ccc(-c2ccc(O[C@H]3COC[C@@H]3O)cc2)cc1)CO (relative stereo) [Compound 10, (trans)-4-((4′-((S)-4-hydroxy-3-(2-((S)-1-hydroxyethyl)-1H-imidazol-1-yl)but-1-yn-1-yl)-[1,1′-biphenyl]-4-yl)oxy)tetrahydrofuran-3-ol] | – | 2 µg/mL (≈ 4.6 µM) | 2 µg/mL (≈ 4.6 µM) | 1 µg/mL (≈ 2.3 µM) | > 9.30 | 8.29 | 9.05
